Columns and labels:
[1] = Catalytic constant from Lineweaver-Burke analysis for antibody catalyzed retrograde aldol reaction with the compound; format: ADME
[2] = Michaelis constant (Km) was determined; format: ADME

Row | SMILES | k cat [1] | Km [2]
1 | CC(=O)CC(O)/C=C/c1ccc(C(F)(F)F)cc1 (configuration not stated) | 0.00227 s⁻¹ | 239 µM
2 | CC(=O)CC(O)/C=C/c1ccccc1 (configuration not stated) | 0.00145 s⁻¹ | 415 µM
3 | CC(=O)CC(O)/C=C/c1ccc(N(C)C)cc1 (configuration not stated) | 0.042 s⁻¹ | 1250 µM
4 | COc1ccc(/C=C/C(O)CC(C)=O)cc1 (configuration not stated) | 0.0067 s⁻¹ | 522 µM
5 | CC(=O)CC(O)/C=C/c1ccc([N+](=O)[O-])cc1 (configuration not stated) | 0.0013 s⁻¹ | 140 µM
6 | CC(=O)CC(O)/C=C/c1ccc(Cl)cc1 (configuration not stated) | 0.00282 s⁻¹ | 324 µM

From ChEMBL document CHEMBL1131760, “Substrate-selective mechanisms in biocatalysis demonstrated with a versatile and efficient aldolase antibody” (Bioorg Med Chem Lett, 1999)
